Source: ChEMBL document CHEMBL1201862, “PubChem BioAssay data set” (2004)
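Following 48 hours of exposure in 96-well plates, responses at five concentrations were used to interpolate endpoints linearly. Abbreviation: GI50, concentration required for 50% inhibition of growth.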 Active and inactive are the calls of the source. No stated cut-off is given here; in the data, active = GI50 up to about 1.1 µM and inactive = higher.

Columns and labels:
Experiment in all cases: NCI anticancer screen, dose series, 48 h
[1] = system: M14
[2] = system: COLO 205
[3] = system: IGROV-1
[4] = system: UACC-257
[5] = system: HT-29
[6] = system: NCI-H522
[7] = system: HOP-62
[8] = system: SNB-75
[9] = system: HOP-92
[10] = system: 786-0
[11] = system: OVCAR-4
[12] = system: UACC-62
[13] = system: SK-MEL-5
[14] = system: CCRF-CEM
[15] = system: SF-539
[16] = system: HCT-15
[17] = system: UO-31
[18] = system: LOX IMVI
[19] = system: SN12C
[20] = system: HL-60

Row | SMILES | GI50 [1] | GI50 [2] | GI50 [3] | GI50 [4] | GI50 [5] | GI50 [6] | GI50 [7] | GI50 [8] | GI50 [9] | GI50 [10] | GI50 [11] | GI50 [12] | GI50 [13] | GI50 [14] | GI50 [15] | GI50 [16] [µM] | GI50 [17] | GI50 [18] | GI50 [19] | GI50 [20]
1 | CCCc1[nH]c2ccccc2c1-c1c(CCC)[nH]c2ccccc12 | 12.6 µM (inactive) | 17.9 µM (inactive) | 12 µM (inactive) | 18.1 µM (inactive) | 8.61 µM (inactive) | 17.1 µM (inactive) | 16.9 µM (inactive) | 19.4 µM (inactive) | 19.5 µM (inactive) | 15.5 µM (inactive) | 21.5 µM (inactive) | 13.3 µM (inactive) | 10.2 µM (inactive) | 8.26 µM (inactive) | 8.36 µM (inactive) | 3.62 | 16.7 µM (inactive) | 4.35 µM (inactive) | 10.1 µM (inactive) | –
2 | COc1ccc(-c2oc3cc(-c4cc5oc(-c6ccc(OC)cc6)c(-c6ccc(OC)cc6)c5cc4OC)c(OC)cc3c2-c2ccc(OC)cc2)cc1 | > 100 µM (inactive) | > 100 µM (inactive) | > 100 µM (inactive) | > 100 µM (inactive) | > 100 µM (inactive) | > 100 µM (inactive) | > 100 µM (inactive) | > 100 µM (inactive) | > 100 µM (inactive) | > 100 µM (inactive) | > 100 µM (inactive) | > 100 µM (inactive) | > 100 µM (inactive) | > 100 µM (inactive) | > 100 µM (inactive) | > 100 | > 100 µM (inactive) | > 100 µM (inactive) | > 100 µM (inactive) | –
3 | CC(Cc1ccc2c(c1)OCO2)N(C)C(=O)C1=CCN(C)CC1 (stereo not given) | > 100 µM (inactive) | > 100 µM (inactive) | > 100 µM (inactive) | > 100 µM (inactive) | > 100 µM (inactive) | > 100 µM (inactive) | > 100 µM (inactive) | 46.2 µM (inactive) | – | > 100 µM (inactive) | > 100 µM (inactive) | > 100 µM (inactive) | > 100 µM (inactive) | > 100 µM (inactive) | – | > 100 | > 100 µM (inactive) | > 100 µM (inactive) | > 100 µM (inactive) | > 100 µM (inactive)
4 | COc1cc([C@@H]2c3cc4c(cc3[C@@H](Nc3ccc(Cl)cc3C(=O)c3ccccc3Cl)[C@H]3COC(=O)[C@H]23)OCO4)cc(OC)c1OC | 0.303 µM (active) | 0.267 µM (active) | 0.261 µM (active) | 0.184 µM (active) | 0.09 µM (active) | 0.0685 µM (active) | 0.443 µM (active) | 0.188 µM (active) | – | 0.261 µM (active) | > 45.8 µM (inactive) | 0.118 µM (active) | 0.102 µM (active) | 0.101 µM (active) | 0.076 µM (active) | 0.102 | 0.344 µM (active) | 0.245 µM (active) | 0.371 µM (active) | 0.0695 µM (active)
5 | CC1=CCC2CC1C(C(=O)c1c[nH]c3ccccc13)=NC2(C)C (stereo not given) | 41.5 µM (inactive) | 52.2 µM (inactive) | > 100 µM (inactive) | 27.4 µM (inactive) | 51.1 µM (inactive) | 44.4 µM (inactive) | > 100 µM (inactive) | – | – | 81.1 µM (inactive) | 40.3 µM (inactive) | 25.2 µM (inactive) | 37.6 µM (inactive) | 22.4 µM (inactive) | > 100 µM (inactive) | 45.2 | 48.8 µM (inactive) | 80.9 µM (inactive) | 87.9 µM (inactive) | 20.8 µM (inactive)
6 | CC1NC(=O)C2=C1C(N)=NC(=O)C2 (stereo not given) | > 100 µM (inactive) | > 100 µM (inactive) | > 100 µM (inactive) | > 100 µM (inactive) | – | > 100 µM (inactive) | – | > 100 µM (inactive) | > 100 µM (inactive) | > 100 µM (inactive) | > 100 µM (inactive) | > 100 µM (inactive) | > 100 µM (inactive) | – | > 100 µM (inactive) | > 100 | > 100 µM (inactive) | > 100 µM (inactive) | > 100 µM (inactive) | –
7 | COc1ccc2oc(-c3cccnc3)cc(=O)c2c1 | > 100 µM (inactive) | > 100 µM (inactive) | 70.8 µM (inactive) | > 100 µM (inactive) | 59.4 µM (inactive) | – | 84.7 µM (inactive) | 40.8 µM (inactive) | 46.1 µM (inactive) | > 100 µM (inactive) | > 100 µM (inactive) | 80.7 µM (inactive) | – | 49.9 µM (inactive) | – | – | 27.2 µM (inactive) | 47.5 µM (inactive) | 71.4 µM (inactive) | 52.5 µM (inactive)
8 | CN[C@@H](C)[C@@H](NC)c1ccccc1 | > 100 µM (inactive) | > 100 µM (inactive) | > 100 µM (inactive) | > 100 µM (inactive) | > 100 µM (inactive) | > 100 µM (inactive) | – | > 100 µM (inactive) | > 100 µM (inactive) | > 100 µM (inactive) | – | > 100 µM (inactive) | > 100 µM (inactive) | > 100 µM (inactive) | > 100 µM (inactive) | > 100 | > 100 µM (inactive) | > 100 µM (inactive) | > 100 µM (inactive) | –
9 | Cc1cc(N(CCC#N)CCC#N)ccc1/N=N/c1cc(Cl)ccc1Cl | 3.46 µM (inactive) | 2.04 µM (inactive) | 15.1 µM (inactive) | 10.7 µM (inactive) | 2.64 µM (inactive) | 1.49 µM (inactive) | 19.5 µM (inactive) | 13 µM (inactive) | – | 14.6 µM (inactive) | 3.07 µM (inactive) | 10.1 µM (inactive) | 16.4 µM (inactive) | 2.92 µM (inactive) | 6.28 µM (inactive) | 2.05 | 16.7 µM (inactive) | 3.62 µM (inactive) | 13.4 µM (inactive) | 3.39 µM (inactive)
10 | Cc1ccc(S(=O)(=O)N(c2ccccc2F)C2CCCCC2O)cc1 (stereo not given) | 74.1 µM (inactive) | 27.2 µM (inactive) | – | 0.214 µM (active) | 43 µM (inactive) | – | 96.2 µM (inactive) | 20 µM (inactive) | – | 65.6 µM (inactive) | 39.5 µM (inactive) | 46.9 µM (inactive) | 20.7 µM (inactive) | 56.9 µM (inactive) | > 100 µM (inactive) | 55 | 33.1 µM (inactive) | 38.8 µM (inactive) | 56.9 µM (inactive) | 23.3 µM (inactive)
11 | C[C@]12CCC(=O)C=C1CC[C@@H]1C2CC[C@]2(C)NC(=O)C(C#N)CC12 (stereo not given in full) | > 100 µM (inactive) | – | > 100 µM (inactive) | > 100 µM (inactive) | 30.8 µM (inactive) | – | 39.6 µM (inactive) | > 100 µM (inactive) | – | > 100 µM (inactive) | > 100 µM (inactive) | > 100 µM (inactive) | > 100 µM (inactive) | > 100 µM (inactive) | > 100 µM (inactive) | > 100 | > 100 µM (inactive) | – | – | > 100 µM (inactive)
12 | CC(=O)NC(CCCNC(=O)N(C)N=O)C(=O)NCc1ccccc1 (stereo not given) | > 100 µM (inactive) | > 100 µM (inactive) | > 100 µM (inactive) | > 100 µM (inactive) | > 100 µM (inactive) | > 100 µM (inactive) | > 100 µM (inactive) | 52.1 µM (inactive) | > 100 µM (inactive) | > 100 µM (inactive) | > 100 µM (inactive) | > 100 µM (inactive) | > 100 µM (inactive) | > 100 µM (inactive) | > 100 µM (inactive) | > 100 | > 100 µM (inactive) | > 100 µM (inactive) | > 100 µM (inactive) | –
13 | CC(=O)Nc1cccc2[nH]c3ccccc3c(=O)c12 | 30.9 µM (inactive) | 16.3 µM (inactive) | 26.4 µM (inactive) | 25.2 µM (inactive) | 17 µM (inactive) | 10.3 µM (inactive) | – | 8.67 µM (inactive) | – | 17.6 µM (inactive) | 22.8 µM (inactive) | 13.8 µM (inactive) | 15.3 µM (inactive) | 21.5 µM (inactive) | 21.6 µM (inactive) | 14.2 | 10.2 µM (inactive) | – | 22.4 µM (inactive) | 12.6 µM (inactive)
14 | C#C[C@H](CCCC)OC(=O)N[C@H](C)c1ccccc1 | 41.8 µM (inactive) | 21.7 µM (inactive) | 75.3 µM (inactive) | 24.8 µM (inactive) | 40.2 µM (inactive) | 29.2 µM (inactive) | > 100 µM (inactive) | 41.2 µM (inactive) | 57.5 µM (inactive) | 49.1 µM (inactive) | 42 µM (inactive) | 80.9 µM (inactive) | 21.7 µM (inactive) | 34.6 µM (inactive) | – | – | 26.9 µM (inactive) | 33.2 µM (inactive) | > 100 µM (inactive) | 17.5 µM (inactive)
15 | CC1(C)C2CCC1(C)[C@H](O)[C@H]2Nc1cc(C(F)(F)F)cc(C(F)(F)F)c1 (stereo not given in full) | 4.06 µM (inactive) | 1.79 µM (inactive) | 4.74 µM (inactive) | 3.78 µM (inactive) | 3.32 µM (inactive) | – | 5.48 µM (inactive) | 0.0252 µM (active) | – | 3.85 µM (inactive) | 5.12 µM (inactive) | > 100 µM (inactive) | 5.38 µM (inactive) | – | 4.66 µM (inactive) | 3.49 | 3.51 µM (inactive) | 3 µM (inactive) | – | –
16 | CC1=N/C(=C/c2ccc3c(c2)OCO3)C(=O)O1 | > 100 µM (inactive) | > 100 µM (inactive) | > 100 µM (inactive) | > 100 µM (inactive) | > 100 µM (inactive) | > 100 µM (inactive) | – | > 100 µM (inactive) | > 100 µM (inactive) | > 100 µM (inactive) | > 100 µM (inactive) | > 100 µM (inactive) | > 100 µM (inactive) | > 100 µM (inactive) | > 100 µM (inactive) | > 100 | > 100 µM (inactive) | > 100 µM (inactive) | > 100 µM (inactive) | –
